Measured values as given in paper PMC6718736, “Validation of in vitro methods for human cytochrome P450 enzyme induction: Outcome of a multi-laboratory study” (Toxicology in Vitro, 2019).
Entries after “also recorded” stand apart in the source; their conditions may differ. Read-outs that look alike come from different tables or passages of the source.

Legend:
[1] = Solubility by visual inspection (DMSO stock solution and assay medium); type: physicochemical; conditions: assay medium
Procedure: The SOPs relied on visual inspection for solubility observation. […] The absence of precipitation in the medium was checked pre- and post-incubation (24 hours) by centrifugation of the sample and observation of any precipitation (pellet residue).

[2] = Solubility by nephelometry (EURL ECVAM); type: physicochemical; conditions: ECVAM nephelometry, ^2 = solubility limit
From the text: In addition to the visual inspection performed by the validation laboratories as described in the SOP, EURL ECVAM introduced nephelometry for systematic solubility determination of the 13 validation set chemicals. Nephelometry uses a laser beam and the principle of Tyndall effect light scatter to detect turbidity due to insolubility. The nephelometer method used formazin as reference item (1, 5, 10 and 20 nephelometric turbidity units (NTU)) to calculate the relative turbidity (RTU) of the validation set of chemicals. To the naked eye, 20 NTU is perceptible, while the nephelometer was sensitive to 5 NTU, with 1 NTU equivalent to background (solvent/medium blank).

[3] = cited from earlier work
[4] = tested on: CYP1A2; experiment: CYP1A2 enzyme induction assay in cryopreserved HepaRG cells (phenacetin probe, LC/MS); type: in vitro ADME, human; conditions: for Assigned classification CYP1A2: HepaRG; as to Assigned classification CYP1A2: key: 1=Positive=inducer; 0=Negative=non-inducer
[5] = tested on: CYP2B6; experiment: CYP2B6 enzyme induction assay in cryopreserved HepaRG cells (bupropion probe, LC/MS); type: in vitro ADME, human; conditions: for Prediction in vivo inducer: Cmax/F2 >0.5 criterion; for Assigned classification CYP2B6: HepaRG; as to Assigned classification CYP2B6: key: 1=Positive=inducer; 0=Negative=non-inducer
[6] = tested on: CYP1A2; experiment: CYP1A2 enzyme induction assay in cryopreserved primary human hepatocytes (PHH); type: in vitro ADME; conditions: for Prediction in vivo inducer: Cmax/F2 >0.5 criterion; for Assigned classification CYP1A2: PHH;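 as to Assigned classification CYP1A2: code 1 means positive inducer and 0 means non-inducer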
[7] = tested on: CYP2B6; experiment: CYP2B6 enzyme induction assay in cryopreserved primary human hepatocytes (PHH); type: in vitro ADME; conditions: for Assigned classification CYP2B6: PHH;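 as to Assigned classification CYP2B6: code 1 means positive inducer and 0 means non-inducer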
[8] = tested on: CYP1A2; conditions: cited from earlier work
[9] = tested on: CYP2B6; conditions: cited from earlier work
[10] = human in vivo plasma concentration, normal dose
[11] = human in vivo, normal dose (Table 10)
[12] = human in vivo, CYP named without remark = induced, ref references in the cell, Washington University database, Hoffmann et al. (2014), Pelkonen et al. (2008), Hukkanen et al. (2012)

CC1(C)S[C@@H]2[C@H](NC(=O)Cc3ccccc3)C(=O)N2[C@H]1C(=O)O [Penicillin G sodium]
HepaRG medium stability ([1]; Lab 1, visual observation): 40 µg/mL | HepaRG medium stability ([1]; Lab 2, visual observation): 40 µg/mL | HepaRG medium stability ([1]; Lab 3, visual observation): 40 µg/mL | PHH medium stability ([1]; Lab 4, visual observation): 40 µg/mL | PHH medium stability ([1]; Lab 5, visual observation): 40 µg/mL | PHH medium stability ([1]; Lab 6, visual observation): 20 µg/mL | HepaRG medium stability ([2]; HepaRG medium): 40 µg/mL | PHH medium stability ([2]; PHH medium): 40 µg/mL | Cmax [3, 10]: 36 µM | Cmax [3, 11]: 36 µM

CO[C@H]1/C=C/O[C@@]2(C)Oc3c(C)c(O)c4c(O)c(c(/C=N/N5CCN(C)CC5)c(O)c4c3C2=O)NC(=O)/C(C)=C\C=C\[C@H](C)[C@H](O)[C@@H](C)[C@@H](O)[C@@H](C)[C@H](OC(C)=O)[C@@H]1C [Rifampicin]
Prediction in vivo inducer ([4]; CYP1A2, HepaRG cells, Cmax/F2 >0.5 criterion): Yes | F2 ([4]; CYP1A2, HepaRG cells, in vitro concentration producing 2-fold induction): 0.20 to 0.60 µM | Induction in vitro ([4]; CYP1A2, HepaRG cells, positive in one batch in each of the three laboratories): Yes | Assigned classification CYP1A2 ([4]; Lab 1, batch 20): 1 | Assigned classification CYP1A2 ([4]; Lab 1, batch 35): 1 | Assigned classification CYP1A2 ([4]; Lab 1, batch 36): 1 | Assigned classification CYP1A2 ([4]; Lab 2, batch 20): 1 | Assigned classification CYP1A2 ([4]; Lab 2, batch 35): 1 | Assigned classification CYP1A2 ([4]; Lab 2, batch 36): 1 | Assigned classification CYP1A2 ([4]; Lab 3, batch 20): 1 | Assigned classification CYP1A2 ([4]; Lab 3, batch 35): 1 | Assigned classification CYP1A2 ([4]; Lab 3, batch 36): 1 | Prediction in vivo inducer ([5]; CYP2B6, HepaRG cells): Yes | Prediction in vivo inducer ([5]; CYP2B6, HepaRG cells, listed as rifampicin): correctly classified | F2 ([5]; CYP2B6, HepaRG cells, in vitro concentration producing 2-fold induction): 0.6 to 1.80 µM | Induction in vitro ([5]; CYP2B6, HepaRG cells, positive in one batch in each of the three laboratories): Yes | Assigned classification CYP2B6 ([5]; Lab 1, batch 20): 0 | Assigned classification CYP2B6 ([5]; Lab 1, batch 35): 1 | Assigned classification CYP2B6 ([5]; Lab 1, batch 36): 0 | Assigned classification CYP2B6 ([5]; Lab 2, batch 20): 1 | Assigned classification CYP2B6 ([5]; Lab 2, batch 35): 0 | Assigned classification CYP2B6 ([5]; Lab 2, batch 36): 1 | Assigned classification CYP2B6 ([5]; Lab 3, batch 20): 0 | Assigned classification CYP2B6 ([5]; Lab 3, batch 35): 0 | Assigned classification CYP2B6 ([5]; Lab 3, batch 36): 1 | Prediction in vivo inducer ([6]; CYP1A2, PHH): No | Prediction in vivo inducer ([6]; CYP1A2, PHH, listed as rifampicin): non-inducer; also recorded: missed the in vivo prediction | Induction in vitro ([6]; CYP1A2, PHH, positive in one donor in each of the three laboratories): No | Assigned classification CYP1A2 ([6]; Lab 1, batch 0 6 A): 0 | Assigned classification CYP1A2 ([6]; Lab 1, batch 4 0 8): 0 | Assigned classification CYP1A2 ([6]; Lab 1, batch 8 0 8): 0 | Assigned classification CYP1A2 ([6]; Lab 2, batch 0 6 A): 0 | Assigned classification CYP1A2 ([6]; Lab 2, batch 4 0 8): 0 | Assigned classification CYP1A2 ([6]; Lab 2, batch 8 0 8): 1 | Assigned classification CYP1A2 ([6]; Lab 3, batch 0 6 A): 1 | Assigned classification CYP1A2 ([6]; Lab 3, batch 4 0 8): 0 | Assigned classification CYP1A2 ([6]; Lab 3, batch 8 0 8): 0 | F2 ([7]; CYP2B6, PHH): 0.2 µM | Induction in vitro ([7]; CYP2B6, PHH): Yes | Prediction in vivo inducer ([7]; CYP2B6, PHH): Yes | Prediction in vivo inducer ([7]; CYP2B6, PHH, Cmax/F2 >0.5 criterion): positive | Assigned classification CYP2B6 ([7]; Lab 1, batch 0 6 A): 1 | Assigned classification CYP2B6 ([7]; Lab 1, batch 4 0 8): 1 | Assigned classification CYP2B6 ([7]; Lab 1, batch 8 0 8): 1 | Assigned classification CYP2B6 ([7]; Lab 2, batch 0 6 A): 1 | Assigned classification CYP2B6 ([7]; Lab 2, batch 4 0 8): 0 | Assigned classification CYP2B6 ([7]; Lab 2, batch 8 0 8): 1 | Assigned classification CYP2B6 ([7]; Lab 3, batch 0 6 A): 1 | Assigned classification CYP2B6 ([7]; Lab 3, batch 4 0 8): 1 | Assigned classification CYP2B6 ([7]; Lab 3, batch 8 0 8): 1 | Induction in vivo ([8]; CYP1A2, human, ref Table 1): Yes | CYP induction in vivo literature reference: CYP1A2 [8, 12]: CYP1A2 | Cmax [3, 10]: 8 to 12 µM | Cmax [3, 11]: 8 to 12 µM | Induction in vivo ([9]; CYP2B6, human in vivo reference classification): Yes | Induction in vivo ([9]; CYP2B6, human, ref Table 1): Yes | CYP induction in vivo literature reference: CYP2B6 [9, 12]: CYP2B6
